For test [1], the target named is T1, Avi-KRAS G12D (1-169) GppNHp/RAF1 RBD-3×FLAG (52-151) (Homo sapiens, UniProt P01116, G12D).
T1 construct: Avi-KRAS G12D (1-169) GppNHp
As to the kind of experiment: HTRF Raf1-KRAS G12D-GppNHp disruption assay. Format: biochemical. The following applies: 1 h incubation. The gist of the method: (§1)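 HTRF read-out (320 nm excitation, 615 nm emission) after two 1 h room-temperature incubations, first with protein mix, then detection reagents. Ten-point dilution series starting at 100 μM; results given as % activity relative to DMSO at 100%.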
In general terms: In TR-FRET formats the signal depends on donor and acceptor labels being close together.

Test [2] concerns the target T2, Avi-KRAS G12D/Q25A (1-169) GppNHp/3×FLAG-PI3KCA (157-299) (Homo sapiens, UniProt P01116, G12D/Q25A).
T2 construct: Avi-KRAS G12D/Q25A (1-169) GppNHp
As to the kind of experiment: HTRF PI3KCA-KRAS G12D/Q25A-GppNHp disruption assay. The format is biochemical. The settings on record: 1 h incubation. Put shortly:
as §1

Test [3] deals with pERK in GP2d cells (KRAS G12D). The experiment in a line: Cell-based pERK HTRF assay. The following applies: GP2d, 1 h, 60 min incubation. The method, then: Biological Example 3. Cell-Based pERK HTRF Assay
pERK assay (Perkin Elmer) was used to determine the effectiveness of compounds in disrupting KRAS G12D protein/effector signaling in cells.
On Day 1, cells (GP2d) were seeded into 96-well plates at 3×10^4 cells/well in 80 μl complete growth media (DMEM, 10% FBS).
On Day 2, cells were treated with compounds at 0.25% DMSO. The source plate was created with compounds diluted in media at 5-fold the final assay concentration. The compounds were run in a 9-point concentration curve starting at 1 μM, with a half-log dilution between concentrations. 20 μL was transferred onto the cell plates (final volume in wells was 100 μL). Plates were harvested after 60 min incubation by aspirating media and adding kit-supplied 1× supplemented lysis buffer to all wells (50 μl per well). Plates were then placed on a plate shaker and incubated at 850 rpm for an additional 30 min.
Antibody mixture solution is prepared by diluting aliquoted d2 and Eu Cryptate antibodies 1:20 in kit supplied detection buffer, mix the diluted antibodies solutions (1:1 v:v). Four μL of this solution is then added to a 384-well detection plate (Perkin Elmer; 6008230).
Samples were homogenized by pipetting up and down and then transferred (16 μL of cell lysates) from the 96-well cell culture plate to two wells of the HTRF 384-well detection plate containing the antibody solution. Plates were centrifuged (524 g for 1 min) and allowed to incubate between 4 and 24 h at room temperature. Maximum signal is reached after 4 h incubation time and remains stable over a period of 24 hours. Therefore, readings can be made between 4 and 24 h of incubation. Plates were centrifuged again (524 g for 1 min), then analyzed on the EnVision plate reader using the following settings: Excitation 320 nm, Bandwidth 75 nm; Emission 615 nm, Bandwidth 85 nm; Gain 100%; Flashes 100; Lag 60 μs.

The structures appear in SMILES notation. Where only a bound is given, the exact number is not on record here.

In general, IC50 refers to the midpoint of a concentration-inhibition curve.

T2 sequence (P01116 1-169 isoform P01116-2 G12D/Q25A limits assumed): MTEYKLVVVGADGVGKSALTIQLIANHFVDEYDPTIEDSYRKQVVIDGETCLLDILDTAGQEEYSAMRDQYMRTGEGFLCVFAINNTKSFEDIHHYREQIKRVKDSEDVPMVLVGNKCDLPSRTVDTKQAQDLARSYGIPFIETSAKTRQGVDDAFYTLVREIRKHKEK
T1 sequence (P01116 1-169 isoform P01116-2 G12D limits assumed): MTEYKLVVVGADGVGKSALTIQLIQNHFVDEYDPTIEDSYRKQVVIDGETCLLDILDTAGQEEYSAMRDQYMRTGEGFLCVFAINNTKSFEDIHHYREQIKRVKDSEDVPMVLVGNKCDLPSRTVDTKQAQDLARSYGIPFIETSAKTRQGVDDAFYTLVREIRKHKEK

As to `Nc1nc2c(-c3c(C(F)(F)F)cc4c(N5CC6CC5CN6)nc(OC[C@@]56CCCN5C[C@H](F)C6)nc4c3F)ccc(F)c2s1` (stereo partly drawn) [Compound 226], the IC50 is 100 to 1000 nM in test [1], 100 to 1000 nM in test [2] and not above 100 nM in test [3].
For `Nc1nc2c(-c3c(OC(F)(F)F)cc4c(N5CC6CCC(C5)N6)nc(OC[C@@]56CCCN5C[C@H](F)C6)nc4c3F)ccc(F)c2s1` [Compound 232], the IC50 in test [1] was 100 to 1000 nM; in test [2], 10000 to 30000 nM; in test [3], not above 100 nM.
Turning to `Nc1nc2c(-c3c(C(F)(F)F)cc4c(NC5CNC5)nc(OC[C@@]56CCCN5C[C@H](F)C6)nc4c3F)ccc(F)c2s1` [Compound 247], the IC50 in test [1] is 100 to 1000 nM; in test [2], 100 to 1000 nM; in test [3] it was more than 1000 nM.
Take `Nc1nc2c(-c3c(C(F)(F)F)cc4c(N5C[C@H]6CC[C@@H](C5)N6)nc(OCC5(CN6CCOCC6)CC5)nc4c3F)ccc(F)c2s1` [Compound 251, 4-(4-((1R,5S)-3,8-diazabicyclo[3.2.1]octan-3-yl)-8-fluoro-2-((1-(morpholinomethyl)cyclopropyl)methoxy)-6-(trifluoromethyl)quinazolin-7-yl)-7-fluorobenzo[d]thiazol-2-amine]: the IC50 was 100 to 1000 nM in test [1], 1000 to 10000 nM in test [2] and not above 100 nM in test [3].
For the molecule `Nc1nc2c(-c3c(C(F)(F)F)cc4c(N5CC6CCC(C5)N6)nc(OCC5(CN6CC[C@@H](F)C6)CC5)nc4c3F)ccc(F)c2s1` [Compound 252], the IC50 is 100 to 1000 nM in test [1], 100 to 1000 nM in test [2] and not above 100 nM in test [3].
As for `Nc1nc2c(-c3c(C(F)(F)F)cc4c(N5C[C@H]6CC[C@@H](C5)N6)nc(OC[C@@]56CCCN5C[C@H](F)C6)nc4c3Cl)ccc(F)c2s1` [Compound 256, 4-(4-((1R,5S)-3,8-diazabicyclo[3.2.1]octan-3-yl)-8-chloro-2-(((2R,7aS)-2-fluorotetrahydro-1H-pyrrolizin-7a(5H)-yl)methoxy)-6-(trifluoromethyl)quinazolin-7-yl)-7-fluorobenzo[d]thiazol-2-amine], the figures for the IC50 in test [1], in test [2] and in test [3] were 100 to 1000 nM, 100 to 1000 nM and not above 100 nM, respectively.
With `N#Cc1cc2c(N3CC4CCC(C3)N4)nc(OC[C@@]34CCCN3C[C@H](F)C4)nc2c(F)c1-c1ccc(F)c2sc(N)nc12` [Compound 258], the IC50 in test [1] is 100 to 1000 nM; in test [2] it was 100 to 1000 nM; in test [3], not above 100 nM.
Consider `CO[C@H]1CN2CCC[C@@]2(COc2nc(N3CC4CCC(C3)N4)c3cc(C(F)(F)F)c(-c4ccc(F)c5sc(N)nc45)c(F)c3n2)C1` [Compound 261], for which the IC50 in test [1] is 100 to 1000 nM; in test [2] it was 100 to 1000 nM; in test [3], not above 100 nM.
On to `Nc1nc2c(-c3c(C(F)(F)F)cc4c(NC5CC6CC[C@H](C5)N6)nc(OCC56CCCN5CCC6)nc4c3F)ccc(F)c2s1` (stereo partly drawn) [Compound 264], for which the IC50 in test [1] was 100 to 1000 nM; in test [2] it was 100 to 1000 nM; in test [3] it was more than 1000 nM.
Regarding `CN(c1nc(OCC23CCCN2CCC3)nc2c(F)c(-c3ccc(F)c4sc(N)nc34)c(C(F)(F)F)cc12)C12CC(N)(C1)C2` [Compound 274], the IC50 in test [1], in test [2] and in test [3] was 100 to 1000 nM in each case.
As for `CN1C[C@H](F)C[C@H]1COc1nc(N2CC3CCC(C2)N3)c2cc(C(F)(F)F)c(-c3ccc(F)c4sc(N)nc34)c(F)c2n1` [Compound 275], the IC50 is 1000 to 10000 nM in test [1], 1000 to 10000 nM in test [2] and not above 100 nM in test [3].
As for `C[C@@H]1C[C@@H](N(C)c2nc(OC[C@@]34CCCN3C[C@H](F)C4)nc3c(F)c(-c4ccc(F)c5sc(N)nc45)c(C(F)(F)F)cc23)CN1` [Compound 283], the concentration for half-maximal inhibition (IC50) in test [1], in test [2] and in test [3] was 100 to 1000 nM each time.
As for `CO[C@H]1CN2CCC[C@]2(COc2nc(N3CC4CCC(C3)N4)c3cc(C(F)(F)F)c(-c4ccc(F)c5sc(N)nc45)c(F)c3n2)C1` [Compound 285], the IC50 is 100 to 1000 nM in test [1], 100 to 1000 nM in test [2] and not above 100 nM in test [3].
`CN(c1nc(OC[C@@]23CCCN2C[C@H](F)C3)nc2c(F)c(-c3ccc(F)c4sc(N)nc34)c(C(F)(F)F)cc12)[C@@H]1CNCC1(C)C` [Compound 293]: the IC50 in test [1], in test [2] and in test [3] was 100 to 1000 nM each time.
For the molecule `CN(c1nc(OCC2(CN3CCOCC3)CC2)nc2c(F)c(-c3ccc(F)c4sc(N)nc34)c(C(F)(F)F)cc12)[C@@H]1CCNC1` [Compound 296], the IC50 in test [1] was 100 to 1000 nM; in test [2], 1000 to 10000 nM; in test [3], not above 100 nM.
Regarding `CN(c1nc(OCC2(CN3CC[C@@H](F)C3)CC2)nc2c(F)c(-c3ccc(F)c4sc(N)nc34)c(C(F)(F)F)cc12)[C@@H]1CCNC1` [Compound 297], the IC50 in test [1] was in the range of 100 to 1000 nM; in test [2], 1000 to 10000 nM; in test [3], 100 to 1000 nM.
Take `Nc1nc2c(-c3c(C(F)(F)F)cc4c(N5CC6CCCC(C5)N6)nc(OC[C@@]56CCCN5C[C@H](F)C6)nc4c3F)ccc(F)c2s1` [Compound 299]: the IC50 in test [1] was 100 to 1000 nM; in test [2], 100 to 1000 nM; in test [3], not above 100 nM.
Take `Nc1nc2c(-c3c(C(F)(F)F)cc4c(N5CC6COCC(C5)N6)nc(OC[C@@]56CCCN5C[C@H](F)C6)nc4c3F)ccc(F)c2s1` [Compound 300]: the IC50 in test [1], in test [2] and in test [3] was 100 to 1000 nM each time.
In the case of `CN(c1nc(OCC23CCCN2CCC3)nc2c(F)c(-c3ccc(F)c4sc(N)nc34)c(C(F)(F)F)cc12)[C@H]1CC[C@H](N)CC1` [Compound 304], the IC50 in test [1] was 1000 to 10000 nM; in test [2] it was 1000 to 10000 nM; in test [3] it was more than 1000 nM.
Regarding `C[C@H]1CNC[C@@H]1N(C)c1nc(OC[C@@]23CCCN2C[C@H](F)C3)nc2c(F)c(-c3ccc(F)c4sc(N)nc34)c(C(F)(F)F)cc12` [Compound 309], the figures for the IC50 in test [1], in test [2] and in test [3] were 1000 to 10000 nM, 1000 to 10000 nM and 100 to 1000 nM, respectively.
Regarding `C[C@H]1C[C@@H](N(C)c2nc(OC[C@@]34CCCN3C[C@H](F)C4)nc3c(F)c(-c4ccc(F)c5sc(N)nc45)c(C(F)(F)F)cc23)CN1` [Compound 311], the IC50 in test [1] is 100 to 1000 nM; in test [2], 10000 to 30000 nM; in test [3] it was not above 100 nM.
As for `CN(c1nc(OC[C@@]23CCCN2C[C@H](F)C3)nc2c(F)c(-c3ccc(F)c4sc(N)nc34)c(C(F)(F)F)cc12)[C@H]1CNCC12CC2` [Compound 312], the figures for the IC50 in test [1], in test [2] and in test [3] were 1000 to 10000 nM, 10000 to 30000 nM and 100 to 1000 nM, respectively.
As for `Nc1nc2c(-c3cc4nc(OC[C@@]56CCCN5C[C@H](F)C6)nc(N5CC6CCC(C5)N6)c4cc3C(F)(F)F)ccc(F)c2s1` [Compound 313], the IC50 in test [1] is 100 to 1000 nM; in test [2], 1000 to 10000 nM; in test [3], not above 100 nM.
On the same counts, the results for `CN(c1nc(OC[C@@]23CCCN2C[C@H](F)C3)nc2c(Cl)c(-c3ccc(F)c4sc(N)nc34)c(C(F)(F)F)cc12)[C@@H]1CCNC1` [Compound 314] are 100 to 1000 nM, 1000 to 10000 nM and 100 to 1000 nM.
Take `CCN1[C@@H]2CC[C@H]1CN(c1nc(OC[C@@]34CCCN3C[C@H](F)C4)nc3c(F)c(-c4ccc(F)c5sc(N)nc45)c(C(F)(F)F)cc13)C2` [Compound 315, 4-(4-((1R,5S)-8-ethyl-3,8-diazabicyclo[3.2.1]octan-3-yl)-8-fluoro-2-(((2R,7aS)-2-fluorotetrahydro-1H-pyrrolizin-7a(5H)-yl)methoxy)-6-(trifluoromethyl)quinazolin-7-yl)-7-fluorobenzo[d]thiazol-2-amine]: the values for the IC50 in test [1], in test [2] and in test [3] were 1000 to 10000 nM, 10000 to 30000 nM and 100 to 1000 nM, respectively.
Take `CC(C)N1C2CCC1CN(c1nc(OC[C@@]34CCCN3C[C@H](F)C4)nc3c(F)c(-c4ccc(F)c5sc(N)nc45)c(C(F)(F)F)cc13)C2` [Compound 316]: the IC50 was in the range of 1000 to 10000 nM in test [1], 1000 to 10000 nM in test [2] and 100 to 1000 nM in test [3].
In the case of `N#Cc1csc2c(F)ccc(-c3cc4nc(OC[C@@]56CCCN5C[C@H](F)C6)nc(N5CC6CCC(C5)N6)c4cc3C(F)(F)F)c12` [Compound 318], the IC50 in test [1] fell in the range of 1000 to 10000 nM; in test [2], 10000 to 30000 nM; in test [3], 100 to 1000 nM.

(Values after patent US20240246954A1, “COMPOSITIONS AND METHODS FOR INHIBITING KRAS” (TheRas, Inc., priority 2021, published 2024).)
